Measured values taken from patent US20240294551A1 (AMGEN INC., priority 2022, published 2024).

Columns and labels:
[1] = biological target: His-tagged KRAS G12D protein (Homo sapiens (Human), UniProt P01116, G12D); assay: KRAS G12D TR-FRET Assay; assay type: binding; details: read-out: KRAS G12D Binding IC50
In short: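 His-tagged KRAS G12D (diluted to 20 nM in pH 7.4 HEPES buffer with 10 mM MgCl2 and 10 μM GDP) was preincubated with titrated compound for 30 min at room temperature. Biotinylated KRPep-2d peptide (diluted to 20 nM) was then added for 1 h, and displacement was monitored by TR-FRET.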

[2] = biological target: GDP-bound KRAS protein (aa 1-169), containing both G12D and C118A amino acid substitutions (Homo sapiens (Human), UniProt P01116, C118A/G12D); assay: KRAS G12D Coupled Nucleotide Exchange Assay; assay type: biochemical; details: read-out: KRAS G12D Coupled Exchange IC50
Sequence of GDP-bound KRAS protein (aa 1-169), containing both G12D and C118A amino acid substitutions (P01116 other isoform, or with tags, fused parts or gaps G12D/C118A): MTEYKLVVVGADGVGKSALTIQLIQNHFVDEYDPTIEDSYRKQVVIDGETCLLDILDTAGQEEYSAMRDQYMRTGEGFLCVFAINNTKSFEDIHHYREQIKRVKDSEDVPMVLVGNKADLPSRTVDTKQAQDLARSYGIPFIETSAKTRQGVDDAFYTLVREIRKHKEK

[3] = tested on: Phosphorylation of ERK1/2 in AsPC-1 cells; assay: Phospho-ERK1/2 MSD Assay; assay type: cell-based, human; details: Homo sapiens, ASPC1, 2 h, read-out: 2 h p-ERK (AsPC-1 cells), IC50
In short: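 Read-out: MSD electrochemiluminescent detection of phosphorylated ERK1/2 in whole-cell lysates, fitted to a 4-parameter logistic curve for IC50. Prior to lysis, AsPC-1 cells (25,000 per well) received a 2 h compound dose-response at 37 °C.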

AsPC-1 cells = assay: AsPC-1 CTG Assay (CellTiter-Glo cell viability); assay type: cell-based, human; details: Homo sapiens, ASPC1, 72 h, AsPC-1, 72 h; first value of the cell; read-out: G12D/C/V Cell Proliferation CTG (72 h) AsPC-1
In short: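 Human pancreatic AsPC-1 or colon SW620 cells in RPMI 1640 with 10% FBS, seeded overnight, then exposed to serially diluted compound for 72 h at 37 °C. CellTiter-Glo luminescence normalized to DMSO control; IC50 from a 4-parameter logistic model.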

SW620 cells = assay: SW620 CTG Assay (CellTiter-Glo cell viability); assay type: cell-based, human; details: Homo sapiens, SW-620; SW620, 72 h; third value of the cell; read-out: G12D/C/V Cell Proliferation CTG (72 h) SW620
Procedure: AsPC-1 and SW620 CTG Assay Protocols
AsPC-1 (human pancreatic adenocarcinoma; ATCC CRL-1682) or SW620 (human colon adenocarcinoma; ATCC CCL-227) cells were cultured in RPMI 1640 medium containing 10% fetal bovine serum and 1× penicillin/streptomycin/L-glutamine. Cells were seeded in 384-well plates at a density of 3.33E+04 cells/mL and incubated at 37° C., 5% CO2, overnight. Serially-diluted compound or DMSO was added to the cells, and plates were incubated at 37° C., 5% CO2 for 72 h. Cell viability was measured using a CellTiter-Glo® Luminescent Cell Viability Assay kit (Promega) according to the manufacturer's protocol. The luminescence signal of treated samples was normalized to DMSO control, and data were analyzed using a 4-parameter logistic model to calculate IC50 values.

MIA PaCa-2 cells = assay: MIA PaCa-2 CTG Assay (CellTiter-Glo cell viability); assay type: cell-based, human; details: Homo sapiens; Mia PaCa-2, 72 h; second value of the cell; read-out: G12D/C/V Cell Proliferation CTG (72 h) Mia PaCa-2
In short: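 Human pancreatic carcinoma cells in RPMI 1640 with 10% FBS, seeded at 1.67E+04 cells/mL and left overnight, were treated with serially diluted compound for 72 h at 37° C, 5% CO2. Viability was read by CellTiter-Glo luminescence normalized to DMSO; IC50 came from a 4-parameter logistic fit.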

Sequence of His-tagged KRAS G12D protein (P01116 other isoform, or with tags, fused parts or gaps G12D): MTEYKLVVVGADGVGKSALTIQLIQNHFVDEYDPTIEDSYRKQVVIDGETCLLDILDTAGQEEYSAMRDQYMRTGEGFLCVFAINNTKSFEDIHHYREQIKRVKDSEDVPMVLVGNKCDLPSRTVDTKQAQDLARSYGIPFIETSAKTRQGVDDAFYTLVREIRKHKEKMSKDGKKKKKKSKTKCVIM

SMILES | IC50 [1] [µM] | IC50 [2] [µM] | IC50 [3] [µM] | IC50 (AsPC-1 cells) [µM] | IC50 (SW620 cells) [µM] | IC50 (MIA PaCa-2 cells) [µM]
C[C@@]12CCCN(C1)c1nc(OC[C@@]34CCCN3C[C@H](F)C4)nc3c(F)c(ncc13)-c1cc(O)cc3ccc(F)c(c13)CCCC(=O)N2 [Example 4, (15R)-22,31-Difluoro-8-(((2R,7aS)-2-fluorotetrahydro-1H-pyrrolo[1,2-a]pyrrol-7a(5H)-yl)methoxy)-27-hydroxy-15-methyl-3,7,9,11,16-pentaazahexacyclo[19.7.1.1˜2,6˜.1˜11,15˜.0˜5,10˜.0˜25,29˜]hentriaconta-1(28),2(31),3,5,7,9,21,23,25(29),26-decaen-17-one bis(2,2,2-trifluoroacetate)] | 0.004 | 0.002 | 0.003 | 0.014 | 0.007 | 0.005
Cc1c2ncc3c(nc(OC[C@@]45CCCN4C[C@H](F)C5)nc13)N1CCC[C@](C)(C1)NC(=O)CCCc1c(F)ccc3cc(O)cc-2c13 [Example 18, (15R)-22-Fluoro-8-(((2R,7aS)-2-fluorotetrahydro-1H-pyrrolo[1,2-a]pyrrol-7a(5H)-yl)methoxy)-27-hydroxy-15,31-dimethyl-3,7,9,11,16-pentaazahexacyclo[19.7.1.1˜2,6˜.1˜11,15˜.0˜5,10˜.0˜25,29˜]hentriaconta-1(28),2(31),3,5,7,9,21,23,25(29),26-decaen-17-one] | 0.006 | 0.003 | 0.012 | 0.082 | 0.032 | 0.029
Cc1cc2[nH]ncc2c2c1CCCCC(=O)O[C@@H]1CCCN(C1)c1nc(OC[C@@]34CCCN3C[C@H](F)C4)nc3c(F)c-2ncc13 [Example 31, (17R)-30-Fluoro-24-(((2R,7aS)-2-fluorotetrahydro-1H-pyrrolo[1,2-a]pyrrol-7a(5H)-yl)methoxy)-9-methyl-16-oxa-5,6,21,23,25,29-hexaazahexacyclo[24.3.1.1˜17,21.0˜2,10˜.0˜3,7˜.0˜22,27˜]hentriaconta-1(30),2,4,7,9,22,24,26,28-nonaen-15-one bis(2,2,2-trifluoroacetate)] |  |  | 0.033 |  | 0.133 | 0.17
O=C1OC[C@@H]2C[C@@H]2c2c(Cl)cc3[nH]ncc3c2-c2ncc3c(nc(OC[C@@]45CCCN4C[C@H](F)C5)nc3c2F)N2CCC[C@H](C2)O1 [Example 45, (11S,13R,18R)-9-Chloro-31-fluoro-25-(((2R,7aS)-2-fluorotetrahydro-1H-pyrrolo[1,2-a]pyrrol-7a(5H)-yl)methoxy)-15,17-dioxa-5,6,22,24,26,30-hexaazaheptacyclo[25.3.1.1˜18,22˜.0˜2,10˜.0˜3,7˜.0˜11,13˜.0˜23,28˜]dotriaconta-1(31),2,4,7,9,23,25,27,29-nonaen-16-one bis(2,2,2-trifluoroacetate)] | 0.002 | 0.001 | 0.001 | 0.05 | 0.01 | 0.01
O=C1CCCCc2c(Cl)cc3[nH]ncc3c2-c2ncc3c(nc(OC[C@@]45CCCN4C[C@H](F)C5)nc3c2F)N2CCCC[C@H](C2)N1 [Example 65, (26R)-18-Chloro-32-fluoro-4-(((2R,7aS)-2-fluorotetrahydro-1H-pyrrolo[1,2-a]pyrrol-7a(5H)-yl)methoxy)-1,3,5,9,14,15,25-heptaazahexacyclo[24.4.1.1˜6,10˜.0˜2,7˜.0˜11,19˜.0˜12,16˜]dotriaconta-2,4,6,8,10(32),11,13,16,18-nonaen-24-one bis(2,2,2-trifluoroacetate)] | 0.006 | 0.002 | 0.024 | 0.32 | 0.052 | 0.16
Cc1cc2[nH]ncc2c2c1[C@H]1C[C@H]1COC(=O)O[C@@H]1CCCN(C1)c1nc(OC[C@@]34CCCN3C[C@H](F)C4)nc3c(F)c-2ncc13 [Example 110] | 0.003 | 0.002 | 0.004 | 0.08 | 0.01 | 0.02
O=C1OCCCc2c(Cl)cc3[nH]ncc3c2-c2ncc3c(nc(OC[C@@]45CCCN4C[C@H](F)C5)nc3c2F)N2CCC[C@H](C2)O1 [Example 115] | 0.003 | 0.001 | 0.01 | 0.06 | 0.0274 | 0.06
Cc1cc2[nH]ncc2c2c1CCCCOC[C@@H]1CCCN(C1)c1nc(OC[C@@]34CCCN3C[C@H](F)C4)nc3c(F)c-2ncc13 [Example 129, (17R)-30-Fluoro-24-(((2R,7aS)-2-fluorotetrahydro-1H-pyrrolo[1,2-a]pyrrol-7a(5H)-yl)methoxy)-9-methyl-15-oxa-5,6,21,23,25,29-hexaazahexacyclo[24.3.1.1˜17,21˜.0˜2,10˜.0˜3,7˜.0˜22,27˜]hentriaconta-1(30),2,4,7,9,22,24,26,28-nonaene bis(2,2,2-trifluoroacetate)] | 0.004 | 0.002 | 0.02 | 0.17 | 0.0674 | 0.09
Fc1c2ncc3c(nc(OC[C@@]45CCCN4C[C@H](F)C5)nc13)N1CCCCC(COCCCCc3c(Cl)cc4[nH]ncc4c3-2)C1 (stereo partly drawn) [Example 141] | 0.002 | 0.001 | 0.006 | 0.12 | 0.0202 | 0.02

Second part, led by results:

IC50 [1] [µM] | IC50 [2] [µM] | IC50 [3] [µM] | IC50 (AsPC-1 cells) [µM] | IC50 (SW620 cells) [µM] | SMILES | IC50 (MIA PaCa-2 cells) [µM]
 |  | 0.006 | 0.067 | 0.05 | CN(C)CC1(COc2nc3c4cnc(c(F)c4n2)-c2c(c(Cl)cc4[nH]ncc24)CCCOC(=O)O[C@@H]2COCCN3C2)CC1 [Example 195, (26S)-18-chloro-4-((1-((dimethylamino)methyl)cyclopropyl)methoxy)-32-fluoro-23,25,28-trioxa-1,3,5,9,14,15-hexaazahexacyclo[24.4.1.1~6,10~.0~2,7~.0~11,19~.0~12,16~]dotriaconta-2,4,6,8,10(32),11,13,16,18-nonaen-24-one] | 0.031
0.004 | 0.002 | 0.0147 | 0.196 | 0.058 | CN1CCC[C@H]1COc1nc2c3cnc(c(F)c3n1)-c1c(c(Cl)cc3[nH]ncc13)CCCOC(=O)O[C@@H]1COCCN2C1 [Example 207, (26S)-18-chloro-32-fluoro-4-(((2S)-1-methyl-2-pyrrolidinyl)methoxy)-23,25,28-trioxa-1,3,5,9,14,15-hexaazahexacyclo[24.4.1.1~6,10~.0~2,7~.0~11,19~.0~12,16~]dotriaconta-2,4,6,8,10(32),11,13,16,18-nonaen-24-one] | 
0.004 | 0.001 | 0.0071 | 0.209 | 0.075 | O=C1OCCc2c(Cl)cc3[nH]ncc3c2-c2ncc3c(nc(OC[C@@]45CCCN4C[C@H](F)C5)nc3c2F)N2CCC[C@@H](CO1)C2 [Example 221] | 
0.004 | 0.002 | 0.0084 | 0.013 | 0.024 | C[C@@]12CCCN(C1)c1nc(OC[C@@]34CCCN3C[C@H](F)C4)nc3c(F)c(ncc13)-c1c(c(Cl)cc3[nH]ncc13)CCCOC(=O)O2 [Example 327, (17R)-9-chloro-30-fluoro-24-(((2R,7aS)-2-fluorotetrahydro-1H-pyrrolo[1,2-a]pyrrol-7a(5H)-yl)methoxy)-17-methyl-14,16-dioxa-5,6,21,23,25,29-hexaazahexacyclo[24.3.1.1~17,21~.0~2,10~.0~3,7~.0~22,27~]hentriaconta-1(30),2,4,7,9,22,24,26,28-nonaen-15-one] | 
0.003 | 0.003 | 0.012 | 0.031 | 0.049 | O=C1OCCCc2c(Cl)cc3[nH]ncc3c2-c2ncc3c(nc(OC[C@@]45CCCN4C[C@H](F)C5)nc3c2F)N2CCC[C@](CF)(C2)O1 [Example 336, (17R)-9-chloro-30-fluoro-17-(fluoromethyl)-24-(((2R,7aS)-2-fluorotetrahydro-1H-pyrrolo[1,2-a]pyrrol-7a(5H)-yl)methoxy)-14,16-dioxa-5,6,21,23,25,29-hexaazahexacyclo[24.3.1.1~17,21~.0~2,10~.0~3,7~.0~22,27~]hentriaconta-1(30),2,4,7,9,22,24,26,28-nonaen-15-one] | 
